Assay results taken from ChEMBL document CHEMBL1201862, “PubChem BioAssay data set” (2004).
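Values below derive from 48-hour exposures of cells grown in 96-well plates, with endpoints linearly interpolated between the two concentrations bracketing the appropriate inhibition level. The concentration for 50% growth inhibition is given as GI50.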 The source made the active and inactive calls. No stated cut-off is given here; in the data, active = GI50 up to about 1.1 µM and inactive = higher.

Legend:
Test in all cases: DTP human tumour cell line panel, 48 h
K562 = tested on: K562
SK-MEL-28 = tested on: SK-MEL-28
SW-620 = tested on: SW-620
ACHN = tested on: ACHN
OVCAR-3 = tested on: OVCAR-3
HCC 2998 = tested on: HCC 2998
CCRF-CEM = tested on: CCRF-CEM
SN12C = tested on: SN12C
A498 = tested on: A498
NCI-H460 = tested on: NCI-H460
NCI-H23 = tested on: NCI-H23
786-0 = tested on: 786-0
PC-3 = tested on: PC-3
A549 = tested on: A549
OVCAR-4 = tested on: OVCAR-4
KM12 = tested on: KM12
UACC-257 = tested on: UACC-257
BT-549 = tested on: BT-549
RPMI-8226 = tested on: RPMI-8226
Hs-578T = tested on: Hs-578T
UACC-62 = tested on: UACC-62
COLO 205 = tested on: COLO 205
SK-MEL-2 = tested on: SK-MEL-2
T47D = tested on: T47D
OVCAR-8 = tested on: OVCAR-8
SNB-19 = tested on: SNB-19
TK-10 = tested on: TK-10
UO-31 = tested on: UO-31
Malme-3M = tested on: Malme-3M
NCI-H226 = tested on: NCI-H226
DU-145 = tested on: DU-145
CAKI-1 = tested on: CAKI-1
MDA-MB-435 = tested on: MDA-MB-435
SNB-75 = tested on: SNB-75
HT-29 = tested on: HT-29
U-251 = tested on: U-251
SK-MEL-5 = tested on: SK-MEL-5
HCT-116 = tested on: HCT-116
MDA-MB-231 = tested on: MDA-MB-231
SR = tested on: SR
HOP-62 = tested on: HOP-62
NCI/ADR-RES = tested on: NCI/ADR-RES
M14 = tested on: M14
SF-268 = tested on: SF-268
HCT-15 = tested on: HCT-15
MDA-N = tested on: MDA-N
HL-60 = tested on: HL-60
NCI-H522 = tested on: NCI-H522
HOP-92 = tested on: HOP-92
LOX IMVI = tested on: LOX IMVI
OVCAR-5 = tested on: OVCAR-5
IGROV-1 = tested on: IGROV-1
RXF 393 = tested on: RXF 393
MOLT-4 = tested on: MOLT-4
SF-539 = tested on: SF-539
SF-295 = tested on: SF-295
EKVX = tested on: EKVX
SK-OV-3 = tested on: SK-OV-3

Compound: COc1cccc(-c2c(C#N)c(N)nc3c2CCS(=O)(=O)c2ccc(C)cc2-3)c1
- GI50 (K562): > 100 µM (inactive)
- GI50 (SK-MEL-28): > 100 µM (inactive)
- GI50 (SW-620): > 100 µM (inactive)
- GI50 (ACHN): > 100 µM (inactive)
- GI50 (OVCAR-3): > 100 µM (inactive)
- GI50 (HCC 2998): 78.2 µM (inactive)
- GI50 (CCRF-CEM): > 100 µM (inactive)
- GI50 (SN12C): > 100 µM (inactive)
- GI50 (A498): > 100 µM (inactive)
- GI50 (NCI-H460): > 100 µM (inactive)
- GI50 (NCI-H23): > 100 µM (inactive)
- GI50 (786-0): 61.7 µM (inactive)
- GI50 (PC-3): 89.1 µM (inactive)
- GI50 (A549): > 100 µM (inactive)
- GI50 (OVCAR-4): 95.5 µM (inactive)
- GI50 (KM12): > 100 µM (inactive)
- GI50 (UACC-257): 65.2 µM (inactive)
- GI50 (BT-549): > 100 µM (inactive)
- GI50 (RPMI-8226): > 100 µM (inactive)
- GI50 (Hs-578T): > 100 µM (inactive)
- GI50 (UACC-62): > 100 µM (inactive)
- GI50 (COLO 205): > 100 µM (inactive)
- GI50 (SK-MEL-2): > 100 µM (inactive)
- GI50 (T47D): > 100 µM (inactive)
- GI50 (OVCAR-8): 43.8 µM (inactive)
- GI50 (SNB-19): 56.2 µM (inactive)
- GI50 (TK-10): > 100 µM (inactive)
- GI50 (UO-31): > 100 µM (inactive)
- GI50 (Malme-3M): 68.1 µM (inactive)
- GI50 (NCI-H226): > 100 µM (inactive)
- GI50 (DU-145): > 100 µM (inactive)
- GI50 (CAKI-1): > 100 µM (inactive)
- GI50 (MDA-MB-435): > 100 µM (inactive)
- GI50 (SNB-75): 33 µM (inactive)
- GI50 (HT-29): > 100 µM (inactive)
- GI50 (U-251): > 100 µM (inactive)
- GI50 (SK-MEL-5): > 100 µM (inactive)
- GI50 (HCT-116): > 100 µM (inactive)
- GI50 (MDA-MB-231): > 100 µM (inactive)
- GI50 (SR): 40.6 µM (inactive)
- GI50 (HOP-62): > 100 µM (inactive)
- GI50 (NCI/ADR-RES): > 100 µM (inactive)
- GI50 (M14): > 100 µM (inactive)
- GI50 (SF-268): > 100 µM (inactive)
- GI50 (HCT-15): > 100 µM
- GI50 (MDA-N): > 100 µM (inactive)
- GI50 (HL-60): > 100 µM (inactive)
- GI50 (NCI-H522): > 100 µM (inactive)
- GI50 (HOP-92): > 100 µM (inactive)
- GI50 (LOX IMVI): > 100 µM (inactive)
- GI50 (OVCAR-5): > 100 µM (inactive)
- GI50 (IGROV-1): > 100 µM (inactive)

Compound: Cc1cc2c(cc1Cl)SC(NNc1cnc3ccccc3n1)=NS2(=O)=O
- GI50 (K562): 73.3 µM (inactive)
- GI50 (SK-MEL-28): 60.5 µM (inactive)
- GI50 (SW-620): 67.8 µM (inactive)
- GI50 (ACHN): > 100 µM (inactive)
- GI50 (OVCAR-3): 47.4 µM (inactive)
- GI50 (HCC 2998): 67.9 µM (inactive)
- GI50 (CCRF-CEM): 46.8 µM (inactive)
- GI50 (SN12C): 88.3 µM (inactive)
- GI50 (A498): 22.8 µM (inactive)
- GI50 (NCI-H460): 33.8 µM (inactive)
- GI50 (NCI-H23): > 100 µM (inactive)
- GI50 (786-0): 38.3 µM (inactive)
- GI50 (PC-3): 35.4 µM (inactive)
- GI50 (A549): 78.9 µM (inactive)
- GI50 (OVCAR-4): 56.8 µM (inactive)
- GI50 (KM12): 74.3 µM (inactive)
- GI50 (UACC-257): 72.8 µM (inactive)
- GI50 (RXF 393): 40.3 µM (inactive)
- GI50 (BT-549): > 100 µM (inactive)
- GI50 (Hs-578T): 51.9 µM (inactive)
- GI50 (UACC-62): 60.7 µM (inactive)
- GI50 (COLO 205): 49.7 µM (inactive)
- GI50 (MOLT-4): 26.6 µM (inactive)
- GI50 (T47D): 55.1 µM (inactive)
- GI50 (OVCAR-8): 68.5 µM (inactive)
- GI50 (SNB-19): 50.1 µM (inactive)
- GI50 (TK-10): > 100 µM (inactive)
- GI50 (UO-31): 30.4 µM (inactive)
- GI50 (Malme-3M): 22.6 µM (inactive)
- GI50 (NCI-H226): 44.4 µM (inactive)
- GI50 (DU-145): > 100 µM (inactive)
- GI50 (CAKI-1): > 100 µM (inactive)
- GI50 (MDA-MB-435): > 100 µM (inactive)
- GI50 (SNB-75): 72.3 µM (inactive)
- GI50 (HT-29): > 100 µM (inactive)
- GI50 (U-251): 48.6 µM (inactive)
- GI50 (SK-MEL-5): 66.7 µM (inactive)
- GI50 (HCT-116): 48.1 µM (inactive)
- GI50 (SF-539): 29.4 µM (inactive)
- GI50 (MDA-MB-231): 61 µM (inactive)
- GI50 (HOP-62): 41.7 µM (inactive)
- GI50 (SF-295): 29.9 µM (inactive)
- GI50 (NCI/ADR-RES): > 100 µM (inactive)
- GI50 (M14): 74.1 µM (inactive)
- GI50 (EKVX): > 100 µM (inactive)
- GI50 (SK-OV-3): 44.2 µM (inactive)
- GI50 (SF-268): 32.3 µM (inactive)
- GI50 (HCT-15): 75.2 µM
- GI50 (MDA-N): 90.2 µM (inactive)
- GI50 (HL-60): > 100 µM (inactive)
- GI50 (NCI-H522): > 100 µM (inactive)
- GI50 (HOP-92): 35.7 µM (inactive)
- GI50 (LOX IMVI): 46 µM (inactive)
- GI50 (OVCAR-5): > 100 µM (inactive)
- GI50 (IGROV-1): 41.8 µM (inactive)

Compound: CC(=O)Oc1ccccc1[C@H]1CC(=O)C[C@H](c2ccccc2OC(C)=O)C12C(=O)c1ccccc1C2=O
- GI50 (K562): 12.7 µM (inactive)
- GI50 (SK-MEL-28): 17 µM (inactive)
- GI50 (OVCAR-3): 22.1 µM (inactive)
- GI50 (HCC 2998): 25.5 µM (inactive)
- GI50 (CCRF-CEM): 10.9 µM (inactive)
- GI50 (SN12C): 37.4 µM (inactive)
- GI50 (A498): 25.6 µM (inactive)
- GI50 (NCI-H460): 19.1 µM (inactive)
- GI50 (NCI-H23): 26.4 µM (inactive)
- GI50 (PC-3): 17.5 µM (inactive)
- GI50 (OVCAR-4): 65.6 µM (inactive)
- GI50 (KM12): 59.6 µM (inactive)
- GI50 (RXF 393): 24.6 µM (inactive)
- GI50 (BT-549): 24.9 µM (inactive)
- GI50 (RPMI-8226): 59.6 µM (inactive)
- GI50 (Hs-578T): 27.7 µM (inactive)
- GI50 (UACC-62): 13 µM (inactive)
- GI50 (COLO 205): 22.3 µM (inactive)
- GI50 (MOLT-4): 17.8 µM (inactive)
- GI50 (SK-MEL-2): 23.5 µM (inactive)
- GI50 (T47D): 40.2 µM (inactive)
- GI50 (OVCAR-8): 39.6 µM (inactive)
- GI50 (SNB-19): 60.4 µM (inactive)
- GI50 (UO-31): 36.3 µM (inactive)
- GI50 (Malme-3M): 40 µM (inactive)
- GI50 (NCI-H226): 27.6 µM (inactive)
- GI50 (DU-145): 35.4 µM (inactive)
- GI50 (CAKI-1): 20.9 µM (inactive)
- GI50 (MDA-MB-435): 14.7 µM (inactive)
- GI50 (SNB-75): 17.9 µM (inactive)
- GI50 (HT-29): 29.2 µM (inactive)
- GI50 (U-251): 38.9 µM (inactive)
- GI50 (SK-MEL-5): 22.4 µM (inactive)
- GI50 (HCT-116): 29.4 µM (inactive)
- GI50 (MDA-MB-231): 27.1 µM (inactive)
- GI50 (SR): 79.4 µM (inactive)
- GI50 (HOP-62): 30.4 µM (inactive)
- GI50 (SF-295): 22.6 µM (inactive)
- GI50 (NCI/ADR-RES): 29.2 µM (inactive)
- GI50 (M14): 19.9 µM (inactive)
- GI50 (SK-OV-3): 43 µM (inactive)
- GI50 (HCT-15): 26.2 µM
- GI50 (MDA-N): 16 µM (inactive)
- GI50 (HL-60): > 100 µM (inactive)
- GI50 (NCI-H522): 26.7 µM (inactive)
- GI50 (HOP-92): 47.9 µM (inactive)
- GI50 (OVCAR-5): 44.2 µM (inactive)
- GI50 (IGROV-1): 44.5 µM (inactive)
